The subject of data set [1] is A549. As to the kind of experiment: cells. Particulars: Homo sapiens, A549, 48 h.
Data set [2] in a line: Selectivity index, ratio IC50 for antiproliferative activity against human WI-38 cells over IC50 for antiproliferative activity against human A549 cells. The following applies: WI-38 cells and A549 cells, read-out: Ratio IC50. Format: toxicity, cell-based.
Data set [3] relates to WI-38. As to the kind of experiment: Antiproliferative activity against human WI-38 cells measured after 48 hrs by MTT assay. Format: functional, cell-based. The following applies: WI-38, 48 h.
The nature of data set [4]: Acute toxicity in female ICR mouse assessed as changes in AST level in liver at 25 mg/kg. The following applies: in vivo. Format: organism-based.
Data set [5] is described as follows: Acute toxicity in female ICR mouse assessed as changes in creatine kinase (CK) level in heart at 25 mg/kg. Format: organism-based. The following applies: in vivo.
A short description of data set [6]: Acute toxicity in female ICR mouse assessed as changes in ALT level in liver at 25 mg/kg. Format: organism-based. Particulars: in vivo.
Data set [7] in a line: Acute toxicity in female ICR mouse assessed as pathological changes in kidney at 25 mg/kg measured by H and E staining method. Format: organism-based. The following applies: in vivo.
Data set [8] in a line: Acute toxicity in female ICR mouse assessed as pathological changes in spleen at 25 mg/kg measured by H and E staining method. Format: organism-based. The following applies: in vivo.
Data set [9] can be described thus: Acute toxicity in female ICR mouse assessed as pathological changes in heart at 25 mg/kg measured by H and E staining method. Format: organism-based. Particulars: in vivo.
Data set [10] is described as follows: Acute toxicity in female ICR mouse assessed as pathological changes in lung at 25 mg/kg measured by H and E staining method. Format: organism-based. Particulars: in vivo.
Data set [11] in a line: Acute toxicity in female ICR mouse assessed as pathological changes in liver at 25 mg/kg measured by H and E staining method. Format: organism-based. The following applies: in vivo.
The nature of data set [12]: Acute toxicity in female ICR mouse assessed as pathological changes in intestine at 25 mg/kg measured by H and E staining method. Format: organism-based. The following applies: in vivo.
The test system of data set [13] is Calu-1. Description: Antiproliferative activity against human Calu-1 cells measured after 48 hrs by MTT assay. Particulars: Calu-1, 48 h. Format: functional, cell-based.
The subject of data set [14] is HCT-116. Description: Antiproliferative activity against human HCT-116 cells measured after 48 hrs by MTT assay. Format: functional, cell-based. Particulars: HCT-116, 48 h.
A short description of data set [15]: Acute toxicity in female ICR mouse assessed as pathological changes in lung at 6.25 to 50 mg/kg measured by H and E staining method. Format: organism-based. Particulars: in vivo, dose 6.25-50 mg/kg.
Data set [16] is described as follows: Acute toxicity in female ICR mouse assessed as pathological changes in heart at 6.25 to 50 mg/kg measured by H and E staining method. Format: organism-based. The following applies: in vivo, dose 6.25-50 mg/kg.
In data set [17] the test system is 786-0. As to the kind of experiment: Antiproliferative activity against human 786-0 cells measured after 48 hrs by MTT assay. Format: functional, cell-based. The following applies: 786-0, 48 h.
Data set [18] concerns PC-9. As to the kind of experiment: Induction of apoptosis in human PC-9 cells assessed as total apoptotic cells at 10 ug/ml measured after 48 hrs by AnnexinV-FITC/PI staining based flow cytometry (reference value: 6.99%). Format: functional. Particulars: dose 10 µg/ml.
Data set [19] can be described thus: Acute toxicity in female ICR mouse assessed as pathological changes in intestine at 6.25 to 50 mg/kg measured by H and E staining method. Format: organism-based. Particulars: in vivo, dose 6.25-50 mg/kg.
The nature of data set [20]: Acute toxicity in female ICR mouse assessed as pathological changes in kidney at 6.25 to 50 mg/kg measured by H and E staining method. Format: organism-based. The following applies: in vivo, dose 6.25-50 mg/kg.
Data set [21] has as its system SK-OV-3. As to the kind of experiment: Antiproliferative activity against human SK-OV-3 cells measured after 48 hrs by MTT assay. Format: functional, cell-based. Particulars: SK-OV-3, 48 h.
Data set [22] relates to PC-9. As to the kind of experiment: Antiproliferative activity against human PC-9 cells measured after 48 hrs by MTT assay. Format: functional, cell-based. The following applies: PC-9, 48 h.
A short description of data set [23]: Acute toxicity in female ICR mouse assessed as pathological changes in spleen at 6.25 to 50 mg/kg measured by H and E staining method. Format: organism-based. Particulars: in vivo, dose 6.25-50 mg/kg.
Data set [24] relates to Huh-7. As to the kind of experiment: Antiproliferative activity against human Huh-7 cells measured after 48 hrs by MTT assay. Format: functional, cell-based. The following applies: Huh-7, 48 h.
Data set [25] can be described thus: Acute toxicity in female ICR mouse assessed as changes in creatine kinase (CK) level in heart at 6.25 to 50 mg/kg. Format: organism-based. Particulars: in vivo, dose 6.25-50 mg/kg.
Data set [26] in a line: Acute toxicity in female ICR mouse assessed as changes in ALT level in liver at 6.25 to 50 mg/kg. Format: organism-based. Particulars: in vivo, dose 6.25-50 mg/kg.
Data set [27] can be described thus: Acute toxicity in female ICR mouse assessed as pathological changes in liver at 6.25 to 50 mg/kg measured by H and E staining method. Particulars: in vivo, dose 6.25-50 mg/kg. Format: organism-based.
The test system of data set [28] is NCI-H460. Description: Antiproliferative activity against human NCI-H460 cells measured after 48 hrs by MTT assay. Format: functional, cell-based. The following applies: NCI-H460, 48 h.
The test system of data set [29] is HeLa. As to the kind of experiment: Antiproliferative activity against human HeLa cells measured after 48 hrs by MTT assay. Format: functional, cell-based.
Data set [30] in a line: Acute toxicity in female ICR mouse assessed as changes in AST level in liver at 6.25 to 50 mg/kg. Format: organism-based. The following applies: in vivo, dose 6.25-50 mg/kg.
Data set [31] has as its system SK-BR-3. Description: Antiproliferative activity against human SK-BR-3 cells measured after 48 hrs by MTT assay. Format: functional, cell-based. The following applies: SK-BR-3, 48 h.
Data set [32] has as its system PC-9. Description: Induction of apoptosis in human PC-9 cells assessed as total apoptotic cells at 100 ug/ml measured after 48 hrs by AnnexinV-FITC/PI staining based flow cytometry (reference value: 6.99%). Format: functional. Particulars: dose 100 µg/ml.
For data set [33], the system named is PC-9. As to the kind of experiment: Induction of apoptosis in human PC-9 cells assessed as total apoptotic cells at 3 ug/ml measured after 48 hrs by AnnexinV-FITC/PI staining based flow cytometry (reference value: 6.99%). Particulars: dose 3 µg/ml. Format: functional.

Converted amounts (≈) assume the structure as drawn. A value given as a limit tells only on which side of the number the result lay.

For `O=C1c2cccc(O)c2C(=O)c2c(O)cc(C(=O)N3CCN(C(=S)SCc4ccc(F)cc4)CC3)cc21`, the IC50 in data set [1] was 36.4 µg/mL (≈ 67.8 µM); in data set [3], above 100 µg/mL. Moreover, the selectivity ratio in data set [2] was 3.

For the molecule `O=C1c2cccc(O)c2C(=O)c2c(O)cc(C(=O)N3CCN(C(=S)SCc4ccccc4)CC3)cc21`, the IC50 in data set [1] was 78.6 µg/mL (≈ 152 µM); in [3] it was 48.8 µg/mL (≈ 94 µM). In addition, in data set [2], the selectivity ratio is 1.

As for `O=C(O)c1cc(O)c2c(c1)C(=O)c1cccc(O)c1C2=O` [RHEIN], the Activity result in data set [4], in [5], in [6], in data set [7], in data set [8] and in [9] was “Non-Toxic” each time. Besides, the Activity result in data set [10], in data set [11] and in [12] was “Non-Toxic” in each case. Moreover, the half-maximal inhibitory concentration (IC50) in data set [1] is 77.1 µg/mL (≈ 271 µM); in data set [3], 92.3 µg/mL (≈ 325 µM). Also, the selectivity ratio in [2] is 1.

Take `COC(=O)CSC(=S)N1CCN(C(=O)c2cc(O)c3c(c2)C(=O)c2cccc(O)c2C3=O)CC1`: the IC50 was 31 µg/mL (≈ 61.9 µM) in data set [1] and 67 µg/mL (≈ 134 µM) in data set [3]. Also, in data set [2], the selectivity ratio was 2.

With `O=C1c2cccc(O)c2C(=O)c2c(O)cc(C(=O)N3CCN(C(=S)SCc4ccc(Cl)cc4)CC3)cc21`, the concentration for half-maximal inhibition (IC50) in [1] is above 100 µg/mL; in data set [3] it was 72.5 µg/mL (≈ 131 µM).

For the molecule `O=C1c2cccc(O)c2C(=O)c2c(O)cc(C(=O)N3CCN(C(=S)SCc4ccc(C(F)(F)F)cc4)CC3)cc21`, the half-inhibitory concentration (IC50) in [1] and in [3] was above 100 µg/mL in each case. Besides, in data set [2], the selectivity ratio came out at 1.

On to `Cc1ccc(CSC(=S)N2CCN(C(=O)c3cc(O)c4c(c3)C(=O)c3cccc(O)c3C4=O)CC2)cc1`, for which the IC50 in data set [1] and in data set [3] was above 100 µg/mL throughout. Further, the selectivity ratio in [2] stood at 1.

For `CCOC(=O)CCCSC(=S)N1CCN(C(=O)c2cc(O)c3c(c2)C(=O)c2cccc(O)c2C3=O)CC1`, the 50% inhibitory concentration (IC50) in [13] came to 23.8 µg/mL (≈ 43.8 µM); in data set [14] it was 25.9 µg/mL (≈ 47.7 µM); in [17] it was 30.1 µg/mL (≈ 55.6 µM); in data set [1], 10.9 µg/mL (≈ 20.1 µM); in data set [21], 35.5 µg/mL (≈ 65.4 µM); in data set [22], 10.8 µg/mL (≈ 19.9 µM). Further, the IC50 in [24] is 23.8 µg/mL (≈ 44 µM); in data set [3], 55.3 µg/mL (≈ 102 µM); in data set [28], 23 µg/mL (≈ 42.4 µM); in data set [29], 30.6 µg/mL (≈ 56.4 µM); in [31] it was 52 µg/mL (≈ 95.8 µM). Besides, the Activity entry in [15] is given as “Non-Toxic”; in [16] it was “Non-Toxic”; in data set [18] it was 28.97%; in data set [19], “Non-Toxic”; in [20], “Non-Toxic”; in [23], “Non-Toxic”. The Activity result in [25] is “Non-Toxic”; in data set [26] it was “Non-Toxic”; in [27], “Non-Toxic”; in [30], “Non-Toxic”; in [32], 47.06%; in data set [33], 13.22%. Further, in data set [2], the selectivity ratio stood at 5.

Regarding `O=C(CSC(=S)N1CCN(C(=O)c2cc(O)c3c(c2)C(=O)c2cccc(O)c2C3=O)CC1)OCc1ccccc1`, the values for the IC50 in data set [1] and in data set [3] were 29.8 µg/mL (≈ 51.7 µM) and above 100 µg/mL, respectively. Further, the selectivity ratio in data set [2] came to 3.

With `C=CCSC(=S)N1CCN(C(=O)c2cc(O)c3c(c2)C(=O)c2cccc(O)c2C3=O)CC1`, the half-inhibitory concentration (IC50) in data set [1] is 40.5 µg/mL (≈ 86.5 µM); in [3], above 100 µg/mL. For the same molecule, the selectivity ratio in [2] amounted to 3.

As for `O=C1c2cccc(O)c2C(=O)c2c(O)cc(C(=O)N3CCN(C(=S)SCCCOc4ccccc4)CC3)cc21`, the IC50 in [1] and in data set [3] was above 100 µg/mL in each case. Moreover, in data set [2], the selectivity ratio stood at 1.

As for `Nc1ccn([C@@H]2O[C@H](CO)[C@@H](O)[C@@H]2O)c(=O)n1` [CYTARABINE], the IC50 is 49.3 µg/mL (≈ 203 µM) in [1] and above 100 µg/mL in data set [3]. Further, in data set [2], the selectivity ratio is 2.

In the case of `COc1cccc2c1C(=O)c1c(O)c3c(c(O)c1C2=O)C[C@@](O)(C(=O)CO)C[C@@H]3O[C@H]1C[C@H](N)[C@H](O)[C@H](C)O1` [DOXORUBICIN], the IC50 was determined as 0.665 µg/mL (≈ 1.22 µM) in [1] and 0.079 µg/mL (≈ 0.145 µM) in [3].
